The source made the active and inactive calls. The calls are words filed in the database; no cut-off is given here.
Key:
Bos taurus [1] = species: Bos taurus; test: Inhibition of bovine trypsin at 17.3 uM
[2] = Inhibition of bovine chymotrypsin; design: species or system Bos taurus
Bos taurus [3] = species: Bos taurus; test: Inhibition of bovine trypsin at 11.4 uM
[4] = Inhibition of chymotrypsin

SMILES	Activity (Bos taurus [1])	IC50 [2]	Activity (Bos taurus [3])	IC50 [4]
CC(=O)N[C@@H](CCC(N)=O)C(=O)N[C@@H]1C(=O)N[C@@H](CC(C)C)C(=O)N[C@H]2CC[C@@H](O)N(C2=O)[C@@H](Cc2ccccc2)C(=O)N(C)[C@@H](Cc2ccc(O)c(Cl)c2)C(=O)N[C@@H](C(C)C)C(=O)O[C@H]1C [CYANOPEPTOLIN 954]	inactive	44.5 nM	inactive	
CC[C@H](C)[C@@H]1NC(=O)[C@H](Cc2ccc(O)cc2)N(C)C(=O)[C@H](Cc2ccccc2)N2C(=O)[C@H](CC[C@H]2O)NC(=O)[C@H](Cc2ccccc2)NC(=O)[C@@H](NC(=O)[C@@H](O)COP(=O)(O)O)[C@@H](C)OC1=O [MICROPEPTIN T 20]				2.5 nM
CC(=O)N[C@@H](CCC(N)=O)C(=O)N[C@@H]1C(=O)N[C@@H](CC(C)C)C(=O)N[C@H]2CC[C@@H](O)N(C2=O)[C@@H](Cc2ccccc2)C(=O)N(C)[C@@H](Cc2ccc(O)cc2)C(=O)N[C@@H](C(C)C)C(=O)O[C@@H]1C [NOSTOPEPTIN BN920]	inactive	31.2 nM	inactive	

— ChEMBL document CHEMBL1141799, “Cyanopeptolin 954, a chlorine-containing chymotrypsin inhibitor of Microcystis aeruginosa NIVA Cya 43” (J Nat Prod, 2005)
